# Data as given in PubChem BioAssay (NCI).
# “And” between values parts separate entries of the source, which are not always exact repeats. Equal entries are not always repeated.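 How tested: cells in 96-well plates exposed to compound for 48 hours at five concentrations. GI50 is the concentration that inhibits growth by half. TGI marks complete inhibition of growth.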 Numbered stars: 1 amine (or outer) side, 2 acyl side, 3 side chain; on linkers, the order of the positions; unused ones are H or OH. Bridge positions count the residues as written; N and C are the ends. Square brackets hold non-standard residues; d marks the D form. Peptide text beside a SMILES is read from it. I, II: the chains in the order shown. Actinocin(1to9) = Cc1c2oc3c(C)ccc(C(=O)[*:2])c3nc-2c(C(=O)[*:1])c(N)c1=O; NMeY = CN[CH](Cc1ccc(O)cc1)C(=O)O; Sar = CNCC(=O)O
# Key:
# Assay in all cases: inhibition of tumour cell growth, NCI panel, 48 h
# M14 melanoma = tested on: M14 melanoma
# SNB-19 CNS = tested on: SNB-19 CNS
# HCC-2998 colon = tested on: HCC-2998 colon
# OVCAR-8 ovarian = tested on: OVCAR-8 ovarian
# MALME-3M melanoma = tested on: MALME-3M melanoma
# RPMI-8226 leukemia = tested on: RPMI-8226 leukemia
# SR leukemia = tested on: SR leukemia
# OVCAR-3 ovarian = tested on: OVCAR-3 ovarian
Compound,GI50 (M14 melanoma),TGI (M14 melanoma),GI50 (SNB-19 CNS),TGI (SNB-19 CNS),GI50 (HCC-2998 colon),TGI (HCC-2998 colon),GI50 (OVCAR-8 ovarian),TGI (OVCAR-8 ovarian),GI50 (MALME-3M melanoma),TGI (MALME-3M melanoma),GI50 (RPMI-8226 leukemia),TGI (RPMI-8226 leukemia),GI50 (SR leukemia),TGI (SR leukemia),GI50 (OVCAR-3 ovarian),TGI (OVCAR-3 ovarian)
C[N+](C)=c1ccc2nc3c(cc(NCCCNc4cc5oc6cc(=[N+](C)C)ccc-6nc5c5ccccc45)c4ccccc43)oc-2c1,1.63 µM,3.18 µM,3.6 µM,19.4 µM,1.77 µM,3.47 µM,1.9 µM,5.85 µM,2.05 µM,4.45 µM,1.69 µM,13.1 µM,2.58 µM,> 28.5 µM,0.341 µM,2.33 µM
CNC(=O)c1ccccc1Nc1nc(Nc2ccc3c(c2OC)CCC[C@H](N2CCN(CCO)CC2)C3)ncc1Cl,1.02 µM and 0.51 µM,3.44 µM and 2.78 µM,2.85 µM and 6.49 µM,14.6 µM and > 10 µM,1.89 µM and 1.56 µM,11.5 µM and > 10 µM,4.73 µM and 3.25 µM,19.9 µM and > 10 µM,0.875 µM and 1.63 µM,3.09 µM and > 10 µM,1.8 µM and 2.95 µM,7.08 µM and > 10 µM,0.0449 µM and 0.128 µM,1.96 µM and 2.32 µM,6.74 µM and 3.18 µM,20.3 µM and > 10 µM
CCn1c(-c2nonc2N)nc2c(N3CCCC3)nccc21,24.5 µM,> 25 µM,19.4 µM,> 25 µM,> 25 µM,> 25 µM,9.88 µM,> 25 µM,> 25 µM,> 25 µM,16.5 µM,> 25 µM,,,14.7 µM,> 25 µM
Cc1ccc(C(=O)NC2CC2)cc1-c1ccc2[nH]ncc2c1,> 25 µM,> 25 µM,> 25 µM,> 25 µM,> 25 µM,> 25 µM,> 25 µM,> 25 µM,> 25 µM,> 25 µM,> 25 µM,> 25 µM,> 25 µM,> 25 µM,> 25 µM,> 25 µM
O=C1NC(c2ccccc2)C2(C(=O)O)CN(C3CC3)c3cc(N4CCNCC4)c(F)cc3C2N1 (configuration not stated),,,> 100 µM,> 100 µM,> 100 µM,> 100 µM,> 100 µM,> 100 µM,> 100 µM,> 100 µM,> 100 µM,> 100 µM,,,> 100 µM,> 100 µM
COC(C)C(O)(C(=O)OCC1=CCN2CCC(O)C12)C(C)(C)O (configuration not stated),,> 100 µM,,> 100 µM,,> 100 µM,,> 100 µM,,> 100 µM,,> 100 µM,,,,> 100 µM
"COc1ccc(CC2C(=O)OC(C)C(NC(=O)c3c4nc5c(C(=O)NC6C(=O)NC(C(C)C)C(=O)N7CCCC7C(=O)N(C)CC(=O)N(C)C(Cc7ccc(OC)cc7)C(=O)OC6C)ccc(C)c5oc-4c(C)c(=O)c3N)C(=O)NC(C(C)C)C(=O)N3CCCC3C(=O)N(C)CC(=O)N2C)cc1 (configuration not stated) (I: TVP[Sar][NMeY](Me) / II: TVP[Sar][NMeY](Me); ester I:1-I:C, II:1-II:C; linker I:N-II:N via Actinocin(1to9); configuration not given here)",< 0.01 µM and 0.0665 µM,,,1.55 µM and > 0.804 µM,,,,,,,,< 0.01 µM,0.000646 µM,> 0.374 µM,,
COc1ccc(-c2cc(=O)c3c(O)c(OC)c(OC)c(OC)c3o2)cc1,,> 100 µM,,> 100 µM,,> 20.4 µM,,> 100 µM,,> 100 µM,,> 100 µM,,,,> 100 µM
N#CC1=C(N)NC(=O)NC12Nc1ccccc1N2,> 100 µM,> 100 µM,> 100 µM,> 100 µM,> 100 µM,> 100 µM,> 100 µM,> 100 µM,> 100 µM,> 100 µM,> 100 µM,> 100 µM,,,> 100 µM,> 100 µM
CC1SC(c2ccc(Cl)cc2Cl)N(NC(=O)C(O)c2ccccc2)C1=O (configuration not stated),42.9 µM,> 100 µM,> 100 µM,> 100 µM,> 100 µM,> 100 µM,63.4 µM,> 100 µM,70.3 µM,> 100 µM,38.9 µM,> 100 µM,,,28.7 µM,> 100 µM
N#Cc1cccc(C2C3=C(COC3=O)N(CCO)c3cc4c(cc32)OCO4)c1 (configuration not stated),0.806 µM,> 50 µM,2.69 µM,> 50 µM,4.6 µM,> 50 µM,2.88 µM,> 50 µM,,,1.79 µM,> 50 µM,0.313 µM,> 50 µM,1.35 µM,> 50 µM
C[C@]12C[C@H](O)[C@H]3[C@@H](CCC4=CC(=O)CC[C@@]43C)[C@@H]1CC[C@@H]2c1csc(-c2ccccc2)n1,,> 100 µM,,> 100 µM,,,,> 100 µM,,97.3 µM,,> 100 µM,,> 100 µM,,> 100 µM
O=c1/c(=N\Nc2ccccc2)c2cccc3ccc4cccc1c4c32,,> 100 µM,,> 100 µM,,,,> 100 µM,,> 100 µM,,> 100 µM,,> 100 µM,,> 100 µM
C=C(C)[C@@H]1CC[C@]2(C(=O)NS(=O)(=O)c3ccccc3)CC[C@]3(C)[C@H](CC[C@@H]4[C@@]5(C)CC[C@H](OC(=O)NS(=O)(=O)c6ccccc6)C(C)(C)[C@@H]5CC[C@]43C)[C@@H]12,1.99 µM,6.89 µM,3.42 µM,18.2 µM,1.42 µM,2.85 µM,2.89 µM,19.1 µM,2.09 µM,5.32 µM,1.37 µM,6.18 µM,,,1.85 µM,3.62 µM
CC1(C)CCC[C@]2(C)c3ccccc3C(=O)CC12 (some centres not stated),38.6 µM,> 100 µM,49.6 µM,> 100 µM,20.8 µM,81.4 µM,32.1 µM,> 100 µM,29 µM,> 100 µM,29.7 µM,> 100 µM,,,41.2 µM,> 100 µM
COc1c(N2CCN(CN3C(=O)C(=Nc4ccc(S(=O)(=O)Nc5ncccn5)cc4)c4cc(Cl)ccc43)C(C)C2)c(F)cc2c(=O)c(C(=O)O)cn(C3CC3)c12 (configuration not stated),13.8 µM,44.7 µM,15.7 µM,49.4 µM,,,13.9 µM,> 50 µM,,,16.8 µM,> 50 µM,12.4 µM,> 50 µM,14.3 µM,> 50 µM
CCCCn1c(=O)c(/C=C/C(=O)/C=C/c2cc3ccccc3n(CCCC)c2=O)cc2ccccc21,,,1.63 µM,3.24 µM,1.01 µM,2.26 µM,1.5 µM,4.12 µM,2.29 µM,5.33 µM,0.317 µM,0.931 µM,0.315 µM,> 100 µM,1.21 µM,2.47 µM
CCn1c2ccccc2c2cc(C(=O)c3ccc(C)c4ccccc34)ccc21,0.276 µM,1.42 µM,0.438 µM,> 100 µM,0.549 µM,3.8 µM,0.493 µM,> 100 µM,0.5 µM,> 100 µM,0.389 µM,> 100 µM,,,0.308 µM,0.938 µM
